Data published in patent US10799467B2, “Use of the phytocannabinoid cannabidivarin (CBDV) in the treatment of epilepsy” (GW Pharma Limited, priority 2010, dated 2020).
Marks after values point to notes of the source that are not given here.

Legend:
motor function = assay: Linearly accelerating rotarod test of motor function; format: in vivo, rats; details: for time remaining on the rotarod (latency to fall): 60 minutes after administration, vehicle 111.6 seconds
Method: Each animal received either CBDV (100 or 200 mg/kg, n=10 for each group) or vehicle (2:1:17 Cremophor:ethanol:saline [n=12] or saline [n=11]) on a given experimental day. Experimental test days were separated by a two day rest period to allow for clearance of previous compounds. The order of drug administration was randomised using a standard Latin square design.
60 minutes after CBDV or vehicle administration, animals were placed on a linearly accelerating rotarod (Panlab/Harvard Apparatus, Holliston, USA) that increased in speed from 4 to 40 rpm over a 300 second period. An accelerating protocol was employed to eliminate the need for habituation to the rotarod, minimising divergence in the results obtained for each animal owing to disproportionate improvements in performance. Each test ended when the animal fell from the rotarod, with each animal performing three accelerating rotarod runs per experimental day. Animals were allowed a 5 minute recovery between tests to prevent fatigue-induced declines in performance. Mean latency in seconds to fall from the rotarod was compared between vehicle control and CBDV groups to assess motor function.
To assess whether there were significant effects on motor function between the two different vehicle treatments, we subjected the data to Mann-Whitney U test. Lack of significance in this analysis would allow us to combine vehicle groups thereby reducing duration of testing (i.e. each rat would undertake only one vehicle treatment test day rather than two). For analysis of CBDV effects on motor function, data were subjected to a between-subjects 1-way ANOVA with drug concentration as the main factor. In all cases, P≤0.05 was considered to be significant.

[1] = tested on: epileptiform burst activity in hippocampal slices (4-AP model); assay: 4-AP in vitro epileptiform model in hippocampal brain slices (multi-electrode array); format: cell-based, Wistar rats
Method: Use of isolated CBDV in two in vitro epileptiform models in hippocampal brain slices
Hippocampal slices were produced acutely from P>21 Wistar rats and activity recorded by multi-electrode arrays (MEA).
To induce epileptiform activity, either Mg^2+ was removed (Mg^2+-free model) or 100 μM 4-aminopyridine was added (4-AP model). 30 min after epileptiform burst activity was established, CBDV was added cumulatively (1, 10, 100 μM; 30 min each).
The effects of CBDV on epileptiform burst amplitude and duration were measured (Table 2.1).

[2] = tested on: pilocarpine-induced seizures; assay: Pilocarpine model of epilepsy; format: in vivo; details: CBDV 50 and 100 mg/kg IP; pilocarpine 380 mg/kg IP
Method: Isolated CBDV was injected intra-peritoneally (IP) in the standard vehicle (1:1:18 ethanol:Cremophor:0.9%^w/v NaCl) at doses of 50, 100 and 200 mg/kg alongside animals that received vehicle alone at a matched volume. 15 minutes later methylscopolamine (1 mg/kg; to reduce peripheral muscarinic effects of pilocarpine) was administered followed, 45 minutes later by pilocarpine (380 mg/kg, IP) administration.

[3] = tested on: pilocarpine-induced seizures; assay: CBDV with standard anti-epileptic drugs in the pilocarpine model of epilepsy; format: in vivo
Description: These two drugs are representative of two classes of anti-convulsants which have different mechanisms of action.

MES-induced seizure = assay: Maximal electroshock seizure (MES) model of epilepsy; format: in vivo, Mouse/ICR; details: for Incidence of Tonic convulsion: Table 10.2, 10 mice per group, vehicle 9/10
Method: The vehicle used in this study was 2:1:17 (ethanol:Cremophor:0.9% ^w/v, NaCl). The test compounds used were cannabidiol (CBD) and cannabidivarin (CBDV). These were made to a solution at the highest concentration; these were then dissolved in ethanol before combination with Cremophor and 0.9% NaCl in the proportion described above. The CBD or CBDV were administered intraperitoneally at a volume of 10 ml/kg body weight. The SAED valproic acid (VBA) was dissolved in saline.
Animal Species/Strain: Mouse/ICR, Microbiological grade: SPF, Supplier: SLC Japan, Inc. […] Temperature: 23±2° C., Humidity: 60±10%, Light conditions: 7 AM to 7 PM for the light period, 7 PM to 7 AM for the dark period. Chow and water: Free access to CRF-1 (Oriental Yeast Co, Ltd) and tap water.
One day before each experiment, mice were weighed and randomized into several groups in each test. On the morning of the experiment day, body weight was measured in order to calculate the administration volume of each animal. Vehicle, CBD, CBDV or valproic acid sodium salt was interperitoneally administered 30 minutes before electric stimuli. Maximal electroshock seizures (MES) in mice was induced by a stimulator (UGO BASILE ECT UNIT 7801, Italia) using a current of 30 mA delivered with a pulse frequency of 100 Hz for 200 msec through earlap electrodes.
All statistical analyses were performed using SAS Software for Windows, Release 9.1 (SAS Institute Japan). The difference of the number (hindlimb extension or deaths) in each group was assessed using two-tailed Fisher's exact test.

[4] = Observation of side effects in all experiments with isolated CBDV and CBDV BDS; format: in vivo; details: all experiments using isolated CBDV and CBDV BDS
[5] = CBDV 200 mg/kg with valproate at various doses

C=C(C)[C@@H]1CCC(C)=C[C@H]1c1c(O)cc(CCC)cc1O [CBDV, Cannabidivarin]
time remaining on the rotarod (latency to fall) (motor function; 100 mg/kg CBDV): 86.6 s | time remaining on the rotarod (latency to fall) (motor function; 200 mg/kg CBDV): 110.0 s | effect on the latency to fall compared to vehicle (motor function; CBDV at any dose (100, 200 mg/kg), P=0.253): no effect | Burst amplitude (% of control) CA1 ([1]; CBDV 1 μM): 89.3 ± 5.6 % of control | Burst duration (% of control) CA1 ([1]; CBDV 1 μM): 104.3 ± 8.0 % of control | Burst amplitude (% of control) CA3 ([1]; CBDV 1 μM): 103.0 ± 5.8 % of control | Burst duration (% of control) CA3 ([1]; CBDV 1 μM): 91.0 ± 6.0 % of control | Burst amplitude (% of control) DG ([1]; CBDV 1 μM): 94.2 ± 3.0 % of control | Burst duration (% of control) DG ([1]; CBDV 1 μM): 95.7 ± 5.9 % of control | Burst amplitude (% of control) CA1 ([1]; CBDV 10 μM): 88.3 ± 5.2 % of control | Burst duration (% of control) CA1 ([1]; CBDV 10 μM): 85.9 ± 6.2 % of control | Burst amplitude (% of control) CA3 ([1]; CBDV 10 μM): 121.9 ± 17.0 % of control | Burst duration (% of control) CA3 ([1]; CBDV 10 μM): 82.5 ± 4.8 % of control | Burst amplitude (% of control) DG ([1]; CBDV 10 μM): 91.2 ± 4.9 % of control | Burst duration (% of control) DG ([1]; CBDV 10 μM): 83.8 ± 4.4 % of control | Burst amplitude (% of control) CA1 ([1]; CBDV 100 μM): 89.5 ± 5.3 % of control | Burst duration (% of control) CA1 ([1]; CBDV 100 μM): 85.9 ± 5.8 % of control | Burst amplitude (% of control) CA3 ([1]; CBDV 100 μM): 110.3 ± 7.0 % of control | Burst duration (% of control) CA3 ([1]; CBDV 100 μM): 79.7 ± 5.4 % of control | Burst amplitude (% of control) DG ([1]; CBDV 100 μM): 95.9 ± 4.3 % of control | Burst duration (% of control) DG ([1]; CBDV 100 μM): 83.4 ± 4.1 % of control | mortality [2]: decreased | seizure severity ([3]; CBDV 200 mg/kg with phenobarbital at various doses): significantly decreases | mortality (independent effect) [3, 5]: significant decrease | seizure severity (independent effect) [3, 5]: independent and positive effects | bilateral seizure incidence ([3]; CBDV 200 mg/kg, particularly with high dose Valproate (250 mg/kg)): significantly decreased | CBDV interaction (alone) with clonic tonic seizure ([3]; CBDV 200 mg/kg, valproate study): statistically significant | Incidence of Tonic convulsion (MES-induced seizure; 50 mg/kg i.p.): 9/10 | Incidence of Tonic convulsion (MES-induced seizure; 100 mg/kg i.p.): 3/10* | Incidence of Tonic convulsion (MES-induced seizure; 200 mg/kg i.p.): 3/10* | inhibition of the expression of hindlimb extension (MES-induced seizure; CBDV 100 and 200 mg/kg IP): significantly inhibited | notable side effects [4]: did not exhibit any notable side effects
